Laboratory results: publication doi:10.1101/2020.05.21.108605v3 (biorxiv, 2020)

How the values were obtained:
Assay type in all cases: cell-based
hERG (IKr) [1] = biological target: T1, hERG (IKr) (Homo sapiens, UniProt Q12809); experiment: whole-cell patch clamp
Cav1.2/β2/α2/δ1 (ICa,L) = Cav1.2/β2/α2/δ1 (ICa,L) (Homo sapiens, UniProt Q13936); experiment: perforated whole-cell patch clamp; conditions: AZM alone, external pH 7.4
KCNQ1/E1 (IKs) = KCNQ1/E1 (IKs) (Homo sapiens, UniProt P51787); experiment: perforated whole-cell patch clamp; conditions: AZM alone, external pH 7.4
hNav1.5 (INa) = hNav1.5 (INa) (Homo sapiens, UniProt Q14524); experiment: whole-cell patch clamp; conditions: AZM alone, external pH 7.4
hERG (IKr) [2] = biological target: T1, hERG (IKr); experiment: whole-cell patch clamp, tail current inhibition
Kir2.1 (IK1) = biological target: T2, Kir2.1 (IK1) (Homo sapiens, UniProt P63252); experiment: whole-cell patch clamp, pulse current inhibition
T2 sequence (P63252 1-427): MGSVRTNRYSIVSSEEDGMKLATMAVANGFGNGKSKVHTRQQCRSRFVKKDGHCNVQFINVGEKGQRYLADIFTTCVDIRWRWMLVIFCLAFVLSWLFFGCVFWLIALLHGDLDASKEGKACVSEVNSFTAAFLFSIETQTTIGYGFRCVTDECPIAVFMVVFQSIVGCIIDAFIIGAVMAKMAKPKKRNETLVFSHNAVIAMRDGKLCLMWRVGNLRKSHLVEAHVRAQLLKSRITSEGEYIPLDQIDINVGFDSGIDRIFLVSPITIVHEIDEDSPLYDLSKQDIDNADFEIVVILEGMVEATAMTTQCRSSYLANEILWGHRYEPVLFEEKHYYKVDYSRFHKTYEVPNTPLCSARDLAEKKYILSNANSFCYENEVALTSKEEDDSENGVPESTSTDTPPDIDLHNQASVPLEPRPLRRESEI

T1 sequence (Q12809 whole entry): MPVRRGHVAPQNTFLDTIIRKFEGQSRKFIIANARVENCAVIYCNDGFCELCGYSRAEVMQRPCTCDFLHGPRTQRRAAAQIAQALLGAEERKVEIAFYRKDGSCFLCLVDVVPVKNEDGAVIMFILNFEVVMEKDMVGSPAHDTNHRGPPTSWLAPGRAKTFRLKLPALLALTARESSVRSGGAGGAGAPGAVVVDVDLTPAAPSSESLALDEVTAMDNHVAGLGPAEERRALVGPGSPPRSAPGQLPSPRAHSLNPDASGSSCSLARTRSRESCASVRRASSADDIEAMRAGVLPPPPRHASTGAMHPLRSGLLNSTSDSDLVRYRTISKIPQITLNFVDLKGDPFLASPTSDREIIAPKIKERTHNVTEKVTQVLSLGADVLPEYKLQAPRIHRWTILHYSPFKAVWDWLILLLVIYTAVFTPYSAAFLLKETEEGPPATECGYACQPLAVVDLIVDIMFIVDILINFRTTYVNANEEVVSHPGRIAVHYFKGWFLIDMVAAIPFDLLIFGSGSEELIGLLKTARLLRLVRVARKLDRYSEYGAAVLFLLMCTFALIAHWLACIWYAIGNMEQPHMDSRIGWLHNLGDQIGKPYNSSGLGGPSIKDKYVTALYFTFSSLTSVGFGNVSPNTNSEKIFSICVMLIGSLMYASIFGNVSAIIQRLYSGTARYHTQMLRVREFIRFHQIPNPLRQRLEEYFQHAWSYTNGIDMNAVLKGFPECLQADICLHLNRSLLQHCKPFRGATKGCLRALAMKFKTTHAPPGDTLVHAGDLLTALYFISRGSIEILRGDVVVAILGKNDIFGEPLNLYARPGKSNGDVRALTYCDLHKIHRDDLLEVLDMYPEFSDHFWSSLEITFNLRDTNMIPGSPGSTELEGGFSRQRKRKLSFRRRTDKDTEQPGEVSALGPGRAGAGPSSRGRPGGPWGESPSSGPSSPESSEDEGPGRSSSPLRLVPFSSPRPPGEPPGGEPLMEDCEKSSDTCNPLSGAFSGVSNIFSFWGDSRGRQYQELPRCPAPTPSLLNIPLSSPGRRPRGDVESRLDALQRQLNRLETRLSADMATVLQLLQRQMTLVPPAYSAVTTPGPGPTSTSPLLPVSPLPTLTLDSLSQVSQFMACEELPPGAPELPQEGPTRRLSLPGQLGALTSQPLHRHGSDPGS
Cav1.2/β2/α2/δ1 (ICa,L), sequence (P54289 957-1103): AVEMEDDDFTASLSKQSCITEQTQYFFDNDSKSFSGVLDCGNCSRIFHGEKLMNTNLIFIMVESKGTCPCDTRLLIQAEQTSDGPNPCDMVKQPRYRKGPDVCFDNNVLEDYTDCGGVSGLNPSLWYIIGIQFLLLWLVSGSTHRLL
Cav1.2/β2/α2/δ1 (ICa,L), sequence (Q08289 whole entry, further chain): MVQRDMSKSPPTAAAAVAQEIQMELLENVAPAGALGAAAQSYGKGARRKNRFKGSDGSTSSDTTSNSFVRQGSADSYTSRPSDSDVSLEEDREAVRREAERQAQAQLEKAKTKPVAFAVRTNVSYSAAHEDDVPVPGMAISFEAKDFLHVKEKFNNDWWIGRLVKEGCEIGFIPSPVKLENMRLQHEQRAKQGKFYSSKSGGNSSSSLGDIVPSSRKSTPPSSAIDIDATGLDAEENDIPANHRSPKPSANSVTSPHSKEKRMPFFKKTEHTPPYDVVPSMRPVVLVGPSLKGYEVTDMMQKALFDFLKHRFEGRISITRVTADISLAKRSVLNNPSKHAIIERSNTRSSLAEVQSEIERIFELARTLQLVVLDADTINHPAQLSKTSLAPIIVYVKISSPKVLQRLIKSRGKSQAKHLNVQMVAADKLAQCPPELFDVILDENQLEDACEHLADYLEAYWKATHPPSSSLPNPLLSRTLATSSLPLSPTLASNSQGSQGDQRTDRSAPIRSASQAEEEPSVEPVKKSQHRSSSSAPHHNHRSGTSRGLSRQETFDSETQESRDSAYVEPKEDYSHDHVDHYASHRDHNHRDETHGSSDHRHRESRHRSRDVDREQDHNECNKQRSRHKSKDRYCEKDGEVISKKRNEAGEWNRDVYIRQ
Cav1.2/β2/α2/δ1 (ICa,L), sequence (Q13936 whole entry): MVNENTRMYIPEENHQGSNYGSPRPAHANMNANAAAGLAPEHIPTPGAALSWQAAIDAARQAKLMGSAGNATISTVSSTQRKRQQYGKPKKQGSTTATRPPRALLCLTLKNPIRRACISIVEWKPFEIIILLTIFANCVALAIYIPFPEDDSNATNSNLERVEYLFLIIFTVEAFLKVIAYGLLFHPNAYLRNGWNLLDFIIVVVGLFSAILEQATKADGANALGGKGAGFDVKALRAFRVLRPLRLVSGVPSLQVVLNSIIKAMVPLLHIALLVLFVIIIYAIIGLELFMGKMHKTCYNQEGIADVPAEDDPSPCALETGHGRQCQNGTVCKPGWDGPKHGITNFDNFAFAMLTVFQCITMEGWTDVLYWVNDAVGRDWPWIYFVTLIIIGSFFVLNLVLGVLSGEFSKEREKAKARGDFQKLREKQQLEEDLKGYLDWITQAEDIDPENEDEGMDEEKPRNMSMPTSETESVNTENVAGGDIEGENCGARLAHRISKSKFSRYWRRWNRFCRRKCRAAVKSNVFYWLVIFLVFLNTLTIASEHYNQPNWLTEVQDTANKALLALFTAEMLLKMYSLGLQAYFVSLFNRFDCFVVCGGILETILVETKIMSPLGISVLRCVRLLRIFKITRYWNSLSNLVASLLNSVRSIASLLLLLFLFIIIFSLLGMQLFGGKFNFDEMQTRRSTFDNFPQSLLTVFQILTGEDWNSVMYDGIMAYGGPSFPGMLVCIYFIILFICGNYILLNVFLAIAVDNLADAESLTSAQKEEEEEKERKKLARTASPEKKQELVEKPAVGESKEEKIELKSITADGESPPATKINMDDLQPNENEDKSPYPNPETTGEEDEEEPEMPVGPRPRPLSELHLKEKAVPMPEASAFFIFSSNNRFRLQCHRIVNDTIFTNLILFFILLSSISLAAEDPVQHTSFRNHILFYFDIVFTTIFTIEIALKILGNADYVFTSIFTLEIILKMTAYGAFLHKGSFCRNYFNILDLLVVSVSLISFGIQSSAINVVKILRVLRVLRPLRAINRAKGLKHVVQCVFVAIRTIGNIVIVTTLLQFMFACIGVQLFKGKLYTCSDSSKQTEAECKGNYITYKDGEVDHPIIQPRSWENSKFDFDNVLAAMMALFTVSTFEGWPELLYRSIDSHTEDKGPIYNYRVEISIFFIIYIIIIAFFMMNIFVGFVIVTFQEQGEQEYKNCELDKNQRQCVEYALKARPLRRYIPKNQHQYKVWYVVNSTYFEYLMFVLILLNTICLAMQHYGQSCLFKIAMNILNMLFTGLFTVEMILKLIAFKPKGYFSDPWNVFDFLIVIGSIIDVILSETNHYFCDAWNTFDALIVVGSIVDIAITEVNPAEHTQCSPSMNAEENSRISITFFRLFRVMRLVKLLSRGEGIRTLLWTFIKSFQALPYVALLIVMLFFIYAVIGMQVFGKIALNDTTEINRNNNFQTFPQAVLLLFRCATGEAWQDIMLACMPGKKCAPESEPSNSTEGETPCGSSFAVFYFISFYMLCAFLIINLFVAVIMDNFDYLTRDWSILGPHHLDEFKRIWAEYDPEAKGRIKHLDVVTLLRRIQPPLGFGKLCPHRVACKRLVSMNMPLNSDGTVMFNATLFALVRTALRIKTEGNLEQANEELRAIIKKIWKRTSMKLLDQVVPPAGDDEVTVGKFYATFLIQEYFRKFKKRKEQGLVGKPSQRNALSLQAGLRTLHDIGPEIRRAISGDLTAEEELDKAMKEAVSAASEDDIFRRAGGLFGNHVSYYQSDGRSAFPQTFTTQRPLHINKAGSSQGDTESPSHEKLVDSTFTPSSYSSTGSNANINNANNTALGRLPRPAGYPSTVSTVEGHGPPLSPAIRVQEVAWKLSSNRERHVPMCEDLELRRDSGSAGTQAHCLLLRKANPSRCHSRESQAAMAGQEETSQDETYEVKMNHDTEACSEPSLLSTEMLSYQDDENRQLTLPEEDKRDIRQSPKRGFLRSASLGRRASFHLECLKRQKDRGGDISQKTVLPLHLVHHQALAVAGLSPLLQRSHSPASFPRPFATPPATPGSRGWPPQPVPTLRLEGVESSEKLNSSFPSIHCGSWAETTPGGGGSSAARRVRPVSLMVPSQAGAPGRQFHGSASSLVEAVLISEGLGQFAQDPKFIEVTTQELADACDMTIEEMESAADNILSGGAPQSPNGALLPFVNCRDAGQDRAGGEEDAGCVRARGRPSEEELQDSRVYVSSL
Cav1.2/β2/α2/δ1 (ICa,L), sequence (P54289 25-956): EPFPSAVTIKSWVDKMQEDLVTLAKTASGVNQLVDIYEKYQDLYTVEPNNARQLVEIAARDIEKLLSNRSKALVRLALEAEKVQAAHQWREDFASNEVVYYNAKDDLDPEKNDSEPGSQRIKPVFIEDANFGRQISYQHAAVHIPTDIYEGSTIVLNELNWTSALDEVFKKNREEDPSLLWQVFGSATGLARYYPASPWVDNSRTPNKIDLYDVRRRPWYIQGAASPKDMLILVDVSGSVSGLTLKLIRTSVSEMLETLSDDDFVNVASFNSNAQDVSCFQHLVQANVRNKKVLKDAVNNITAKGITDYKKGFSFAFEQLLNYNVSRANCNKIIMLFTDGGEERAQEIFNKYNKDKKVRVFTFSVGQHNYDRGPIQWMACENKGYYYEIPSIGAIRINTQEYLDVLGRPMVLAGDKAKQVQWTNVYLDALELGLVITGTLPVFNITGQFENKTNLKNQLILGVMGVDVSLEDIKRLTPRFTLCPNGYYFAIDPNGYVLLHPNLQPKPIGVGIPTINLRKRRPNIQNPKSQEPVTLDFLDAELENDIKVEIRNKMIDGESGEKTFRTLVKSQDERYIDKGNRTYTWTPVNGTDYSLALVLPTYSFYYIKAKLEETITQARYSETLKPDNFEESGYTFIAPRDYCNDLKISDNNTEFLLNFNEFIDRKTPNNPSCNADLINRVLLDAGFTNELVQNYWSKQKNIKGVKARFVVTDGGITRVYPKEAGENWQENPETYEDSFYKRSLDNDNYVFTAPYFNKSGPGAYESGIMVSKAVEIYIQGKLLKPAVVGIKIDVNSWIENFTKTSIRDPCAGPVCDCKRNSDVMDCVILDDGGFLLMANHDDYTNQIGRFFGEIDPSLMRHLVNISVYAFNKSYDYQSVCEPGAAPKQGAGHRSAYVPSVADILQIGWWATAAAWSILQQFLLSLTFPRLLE

SMILES	% reduction at 100 μM (hERG (IKr) [1])	% reduction at 100 μM (Cav1.2/β2/α2/δ1 (ICa,L))	% reduction at 100 μM (KCNQ1/E1 (IKs))	% reduction at 100 μM (hNav1.5 (INa))	IC50 (hERG (IKr) [2])	IC50 (Kir2.1 (IK1))
CC[C@H]1OC(=O)[C@H](C)[C@@H](O[C@H]2C[C@@](C)(OC)[C@@H](O)[C@H](C)O2)[C@H](C)[C@@H](O[C@@H]2O[C@H](C)C[C@H](N(C)C)[C@H]2O)[C@](C)(O)C[C@@H](C)CN(C)[C@H](C)[C@@H](O)[C@]1(C)O [azithromycin]	< 35%	< 35%	< 35%	< 35%	–	–
CCN(CCO)CCCC(C)Nc1ccnc2cc(Cl)ccc12 (stereo not drawn) [hydroxychloroquine]	–	–	–	–	10 ± 0.6 µM	34 ± 5 µM
